Measured values taken from patent US6623931B2, “Diagnostic assay for antibiotic tolerance” (priority 2001, dated 2003).

Tests used:
Assay type in all cases: cell-based
[1] = tested on: Streptococcus pneumoniae; experiment: lysis after exposure to 10×MIC vancomycin (optical density of the culture)
Description: Prevalence of vancomycin tolerance in clinical isolates. To determine the prevalence of vancomycin tolerance in Streptococcus pneumoniae in a population of healthy children, 215 nasopharygeal isolates from Vanderbilt University Hospital were screened for lysis after exposure to 10×MIC (minimum inhibitory concentration) vancomycin (5 ug/ml).

[2] = tested on: Streptococcus pneumoniae; experiment: viability assay after exposure to vancomycin
Description: To confirm tolerance, the 27 non-lytic strains were subjected to viability assays. […] This is within ±2 standard deviations (SD) of the killing rate for the tolerant Lyt4-4 strain.

[3] = tested on: Streptococcus pneumoniae; experiment: MIC of tolerant isolates; conditions: tolerant clinical isolates
Description: (§1) Characteristics of Tolerant Isolates. The MIC's of the tolerant isolates ranged from 0.1 ug/ml to 0.3 ug/ml vancomycin and all were resistant to penicillin as evidenced by an oxacillin disc sensitivity test. Tolerance was not correlated with serotype. Frequently, tolerant strains were isolated days to weeks after non-tolerant strains in the same child indicating tolerance could arise during carriage in the nasopharynx. Clonal relatedness between the non-tolerant and tolerant strains isolated sequentially from the same child was assessed by pulse-field gel electrophoresis (PFGE) patterns of SmaI digested genomic DNA. […] Thus, tolerant and non-tolerant strains could be paired for comparison. PFGE indicated a possible serotype switch in one child (Child C), while another child (Child E) was colonized by two separate, yet closely related, tolerant strains.

[4] = tested on: Streptococcus pneumoniae; experiment: reversal of tolerance by exogenous synthetic Pep27 added with vancomycin; conditions: tolerant clinical strains, vancomycin 10×MIC in the absence of peptide
Description: Pep27 Transport by Vex. In laboratory strains, tolerance has been created by loss of function mutations in the death signal Pep27 or its transporter Vex, the loci contiguous with vncS/R. Tolerance in these cases was attributed to lack of Pep27 or lack of Pep27 export into the supernatant. To assess Pep27 in the supernatant, immunoprecipitations were performed using Pep27 antibody. […] Therefore, extracellular transport of the peptide may be defective in tolerant strains leading to the loss of signal for death through VncS. If so, tolerance should be reversed through the addition of exogenous Pep27 to the culture. To test this, tolerant clinical strains were treated with vancomycin at 10×MIC as before but 0.5 mM synthetic Pep27 was added in conjunction with the antibiotic.

[5] = tested on: Streptococcus pneumoniae; experiment: lysis by 1% deoxycholate (activation of functional LytA); conditions: all tolerant isolates
Description: Identification of the Mechanism Contributing to Tolerance. […] Furthermore, all tolerant isolates were lysed by 1% deoxycholate—a detergent that specifically activates functional LytA causing lysis of the bacteria. This eliminated mechanisms of tolerance in the clinical strains that arise from lack of enzyme or loss of amidase activity. Attention thus focused on the only reported mechanism where normal amidase is present: mutation of the vncR/S locus, encoding a two-component sensor regulator system. Western blot analysis confirmed the presence of VncS and VncR in the tolerant clinical isolates.

[6] = tested on: Streptococcus pneumoniae; experiment: oxacillin disc sensitivity test; conditions: tolerant clinical isolates
Description: as §1

## CN[C@H](CC(C)C)C(=O)N[C@H]1C(=O)N[C@@H](CC(N)=O)C(=O)N[C@H]2C(=O)N[C@H]3C(=O)N[C@H](C(=O)N[C@H](C(=O)O)c4cc(O)cc(O)c4-c4cc3ccc4O)[C@H](O)c3ccc(c(Cl)c3)Oc3cc2cc(c3O[C@@H]2O[C@H](CO)[C@@H](O)[C@H](O)[C@H]2O[C@H]2C[C@](C)(N)[C@H](O)[C@H](C)O2)Oc2ccc(cc2Cl)[C@H]1O [vancomycin]
[1]; 27 of 215 nasopharyngeal isolates that failed to lyse, after 4 hours, 10×MIC vancomycin (5 ug/ml)
  optical density of the culture: above 0.15
[1]; control R6 strain, after 2 hours @ 10×MIC of vancomycin
  OD620nm: 0.02
[2]; R6 strain, after 4 hours of exposure to vancomycin
  log kill: 5 log
[2]; eight tolerant clinical isolates, after 4 hours of exposure to vancomycin
  log killing: < 3 log
[2]; remaining 19 non-lytic isolates
  viability after antibiotic exposure: dead after antibiotic exposure
[3]
  MIC: 0.1 to 0.3 µg/mL
[4]
  viability diminished: 2 logs

## deoxycholate
[5]
  lysis of the bacteria: lysed

## penicillin
[6]
  penicillin susceptibility: resistant
